Entries after “also recorded” stand apart in the source; their conditions may differ.
Test system: 293T cells
Assay: RT-PCR of muscle specific gene expression in permeabilized 293T cells incubated with cell extracts, with or without transcription modifying agents or conditioned media
Assay type: cell-based, human
Source text: A hallmark of a particular cell type is its gene expression profile. Reverse-Transcription of the expressed RNA in a cell, combined with Polymerase Chain Reaction aided amplification of the signal (RT-PCR), was used to detect the expression levels of these genes and provide a method to detect cell reprogramming. This example illustrates RT-PCR assays for detection of muscle specific genes in C2C12 cells (FIG. 5). Total RNA prepared from C2C12 cells at different stages of differentiation (t=0, t=3, t=6) or from 293T cells or HeLa cells were used in an RT-PCR reaction with primers specific to the muscle specific genes, MyoD or Myogenin. […] RT-PCR conditions for the detection of late muscle specific genes Troponin T and Myosin Heavy Chain, and for the hES cell marker Oct-4, were also established. Due to its relatively high sensitivity, gene expression analysis using RT-PCR was used to detect expression of marker genes in permeablized and potentially reprogrammed recipient cells.
Cell extracts were introduced into a recipient cell by reversible permeabilization of recipient cells using the pore-forming, calcium sensitive bacterial toxin Streptolysin O (SLO) and exposure of these cells to reprogramming cell extracts. Limited and transient exposure of cells to low doses of SLO in the absence of calcium ions allows the formation of membrane pores large enough to allow the passive diffusion of proteins up to the size of 100 kilodaltons, but not large enough for organelles. Subsequently, reversal of this membrane permeabilization by adding calcium ions allows the membrane to repair itself and the resealed cells are viable and can proliferate. During the permeabilization process, the recipient cell was incubated with whole cell extracts or nuclear or cytoplasmic extracts of a desired cell type (“donor cell”), and (in some experiments) in the presence of permeabilization/reprogramming promoting agents such as an energy generating system and cytoskeletal disruptors. The whole cell extract is believed to provide regulatory factors that are taken up by the permeabilizing recipient cell. The plasma membrane was then resealed, the cells were allowed to recover and cultured further, in conditions conducive to desired reprogramming. […] The resultant changes in gene expression profiles may arise over time, and may be further promoted by subsequent rounds of treatment with donor cell extract.
Cells were treated with reprogramming extracts (or control 293T “self” extracts) as above.
We next turned to testing the effects of these treatments on reprogramming potential by evaluating reprogramming of 293T or primary NHDF-N cells incubated with cell extracts from the C2C12 muscle differentiating system by gene expression analysis (RT-PCR). In the case of examining the effects of transcription modifying agents, several variations of treatment plans were envisioned. The agents can be applied before or after permeabilizing the cells (or both) and for different durations of time, as long as the cells survive the treatment. Plausibly, different treatment designs could potentially lead to different effects.

[1] = agents applied after priming/permeabilization of C2C12 extract exposed 293T cells, 5-aza 10 uM, SB 10 mM, TSA 10 nM
[2] = agents for 48 hours before permeabilization, 293T self extract

SMILES | MyoD expression in cells primed with control self extract (agent applied post priming, 293T self extract) | level of MyoD RNA detection [1] | MyoD expression in cells incubated with control self extract [2] | level of MyoD RNA detection (agents for 48 hours before permeabilization, C2C12 extract incubated 293T cells, relative to C2C12 extract alone) | Troponin T transcript at later timepoints (later timepoints, modifier treated and C2C12 extract incubated 293T cells) | level of MyoD RNA detection (agents applied after priming/permeabilization of C2C12 extract exposed 293T cells, 5-aza 10 uM, SB 10 mM, TSA 10 nM, listed as SB) | level of MyoD RNA detection (agents for 48 hours before permeabilization, C2C12 extract incubated 293T cells, relative to C2C12 extract alone, listed as SB) | level of MyoD RNA detection (agents for 48 hours before permeabilization, C2C12 extract incubated 293T cells, relative to C2C12 extract alone, listed as TSA)
Nc1ncn([C@@H]2O[C@H](CO)[C@@H](O)[C@H]2O)c(=O)n1 [5-azacytidine] | low level of expression of MyoD | did not appear to enhance the level of MyoD expression | low level of expression of MyoD | appeared to enhance the level detection of this RNA; also recorded: enhance the level detection of this RNA slightly | more abundant and more specific |  |  | 
CCCC(=O)[O-].[Na+] [Sodium Butyrate] |  | small increase in expression | low level of expression of MyoD |  |  | did not appear to enhance the level of MyoD expression | appeared to enhance the level detection of this RNA; also recorded: enhance the level detection of this RNA slightly | 
CC(/C=C/C(=O)NO)=C\[C@@H](C)C(=O)c1ccc(N(C)C)cc1 [Trichostatin A] |  | did not appear to enhance the level of MyoD expression |  |  |  |  |  | appeared to enhance the level detection of this RNA; also recorded: enhance the level detection of this RNA slightly
